Results taken from US20240041769A1, “COMPOSITIONS AND METHODS FOR DELIVERY OF ANTICANCER AGENTS WITH IMPROVED THERAPEUTIC INDEX” (NanoTech Pharma Inc., priority 2020, published 2024).

Columns and labels:
[1] = In-vivo pharmacokinetic study, intravenous; design: species or system BALB/c nude mice; settings: mice, free drug solutions
Experimental: In-vivo pharmacokinetic study of free afatinib and nintedanib combination (data not shown), and AFA/NIN-L (1:5 AFA:NIN molar ratio) were carried out in BALB/c nude mice. The preparation of the PEGylated AFA/NIN-L with TEA-SOS used as the trapping agent was described in the Experimental Method section. The mixture of afatinib and nintedanib free drug cocktail and PEGylated AFA/NIN-L with a molar ratio of 1:5 were administered intravenously via the tail vein into the mice and the plasma concentration of both AFA and NIN was monitored over time. Doses of the all drug formulations were 7.0 mg/kg of afatinib free base (10.3 mg/kg afatinib dimaleate) and 38.9 mg/kg of nintedanib free base (46.8 mg/kg nintedanib […]). After intravenous administration, blood was collected at multiple time points by cardiac puncture (3 mice per time point) and placed into EDTA coated micro containers. The samples were centrifuged to separate plasma, and plasma was transferred to another tube. Then, AFA and NIN plasma levels were quantified with LC-MS. PK parameters were then calculated from measured AFA and NIN plasma levels.

[2] = clinical studies, oral afatinib; cited from earlier work

Row | Structure (SMILES) | elimination after IV administration [1] | treatment-related grade ≥3 AE: diarrhea [2] | treatment-related grade ≥3 AE: rash/acne [2] | treatment-related grade ≥3 AE: stomatitis/mucositis [2]
1 | CN(C)C/C=C/C(=O)Nc1cc2c(Nc3ccc(F)c(Cl)c3)ncnc2cc1O[C@H]1CCOC1 [AFA, Afatinib] | rapidly eliminated | 5.4-14.4% | 9.7-16.2% | 5.4-8.7%
2 | COC(=O)c1ccc2c(c1)NC(=O)/C2=C(\Nc1ccc(N(C)C(=O)CN2CCN(C)CC2)cc1)c1ccccc1 [NIN, Nintedanib] | rapidly eliminated |  |  | 
